How the values were obtained:
[1] = tested on: VEGFA (786-O cells); assay: VEGFA ELISA Assay (IC50); assay type: cell-based; settings: 24 hours incubation, VEGFA in culture supernatant by ELISA
Method: 786-O cells in exponential growth phase were seeded in 96-well plate, the cell concentration was 65,000 cells per milliliter of culture medium, 180 ul per well. Compounds were serial diluted to the indicated concentration, and 20 ul compound solutions of different concentrations were added to the corresponding cell wells. The final compound concentrations were as follows (nM): 1.5, 4.6, 13.7, 41.2, 123.5, 370.4, 1111.1, 3333.3, 10000. After 24 hours of incubation, the cell culture supernatant was taken, and the VEGFA concentration was determined using an ELISA kit (purchased from abcam). Finally, the reaction was terminated, and the light absorbance value of each well was measured using a microplate reader at a wavelength of […], and IC50 was calculated by GraphPad Prism. Cell Titer-Glo reagent was used to measure cell viability.

[2] = tested on: HIF2α reporter cells (786-O-HIF2α-Luc cells); assay: Luciferase Assay (HIF2α reporter cells); assay type: cell-based; settings: 18-20 h, Steady-Glo luminescence
Method: Luciferase LUC gene was transfected into 786-O cells (purchased from ATCC) using Lipofectamine 3000 Transfection Reagent (purchased from Invitrogen) to construct HIF2α reporter cells (786-O-HIF2α-Luc cells). Experiments were performed when 786-O-HIF2α-Luc cells were in logarithmic growth phase, culture medium (RPMI MEDIUM 1640, purchased from Invitrogen) was abandoned, the cells were rinsed with PBS three times; trypsin (TrypLE, purchased from invitrogen) was added to digest cells, the digestion was terminated by washing the cells with culture medium, 10% fetal bovine serum, 1% penicillin and streptomycin. The cells were collected by centrifugation, rinsed twice with PBS to remove the phenol red in the medium, and then resuspended the cells to an appropriate concentration, and detected the cell density and viability, and made sure the cell viability is above 90% before it can be used for experiments.
The gradient concentration compound was transferred into 384-well plate, 25 nl/well using Echo 550 (non-contact sonic pipetting system, purchased from Labcyte); the cells were seeded in 384-well plate, 4500 cells/well, with 25 μl of culture medium, to make the final concentrations as follows: 10000, 3333, 1111, 370, 123, 41.1, 13.7, 4.6, 1.5, 0.5 nM. Cells were incubated at 37° C., 5% CO2 for 18-20 h; Steady-Glo™ Luciferase Assay System (purchased from Promega) was added to 384 well-plate, 25 μl/well; the luminescence value was detected with Envision. The % inhibition rate was calculated according to the RLU (Record Luminescence) signal value of each well, and then the IC50 of the corresponding compound was calculated by Graphpad 8.0.

[3] = Homo sapiens, 786-0, 24 h, numeric values

| Compound | IC50 ([1]; Homo sapiens, 786-0, 24 h, class symbols) | IC50 ([2]; numeric values) | IC50 [1, 3] | IC50 ([1]; numeric values) | IC50 ([2]; class symbols) |
| --- | --- | --- | --- | --- | --- |
| N#Cc1ccc(-n2cc(C(F)(F)F)c3c2CCC(F)(F)[C@H]3O)cc1C#N [Example 167, (S)-4-(5,5-difluoro-4-hydroxy-3-(trifluoromethyl)-4,5,6,7-tetrahydro-1H-indol-1-yl)phthalonitrile] | ≤ 500 nM | 69.9 nM | – | – | – |
| OC1c2c(C(F)(F)F)cn(-c3ccc(F)c(C(F)F)c3)c2CCC1(F)F (stereo not shown) [Example 168, 1-(3-(difluoromethyl)-4-fluorophenyl)-5,5-difluoro-3-(trifluoromethyl)-4,5,6,7-tetrahydro-1H-indol-4-ol] | – | 30.5 nM | 8.4 nM | – | – |
| O[C@H]1c2c(C(F)(F)F)cn(-c3ccc(F)c(C(F)F)c3)c2CCC1(F)F [Example 173, (S)-1-(3-(difluoromethyl)-4-fluorophenyl)-5,5-difluoro-3-(trifluoromethyl)-4,5,6,7-tetrahydro-1H-indol-4-ol] | – | 15.9 nM | 17.8 nM | – | – |
| [2H][C@]1(O)c2c(C(F)(F)F)cn(-c3ccc(F)c(C#N)c3)c2CCC1(F)F [Example 200, (S)-5-(5,5-difluoro-4-hydroxyl-3-(trifluoromethyl)-4,5,6,7-tetrahydro-1H-indol-1-yl-4-d)-2-fluorobenzonitrile] | – | 33.5 nM | 5.6 nM | – | – |
| (4S,5S)-1-(3-(difluoromethyl)-4-fluorophenyl)-5-fluoro-3-(trifluoromethyl)-4,5,6,7-tetrahydro-1H-indol-4-ol and (4R,5R)-1-(3-(difluoromethyl)-4-fluorophenyl)-5-fluoro-3-(trifluoromethyl)-4,5,6,7-tetrahydro-1H-indol-4-ol [Example 103] | – | – | – | 44.1 nM | ≤ 500 nM |
